In the NIST ThermoML archive (doi:10.1016/j.jct.2016.03.026):

Assay: xn = mol fraction of the nth substance listed
Conditions: Fluid (supercritical or subcritical phases), x1 = 0.97; for mass density: Vibrating tube method; for speed of sound: 293.13 K, Frequency=5 MHz, Pulse-echo method

O=C=O [carbon dioxide] + CO
Conditions | mass density [kg/m3]
283.15 K, 16550 kPa | 963.02
283.15 K, 16575 kPa | 963.18
283.15 K, 16600 kPa | 963.26
283.15 K, 16625 kPa | 963.43
283.15 K, 16650 kPa | 963.51
283.15 K, 16675 kPa | 963.66
283.15 K, 16700 kPa | 963.77
283.15 K, 16725 kPa | 963.92
283.15 K, 16750 kPa | 964
283.15 K, 16775 kPa | 964.16
283.15 K, 16800 kPa | 964.28
283.15 K, 16825 kPa | 964.4
283.15 K, 16850 kPa | 964.49
283.15 K, 16875 kPa | 964.65
283.15 K, 16900 kPa | 964.79
283.15 K, 16925 kPa | 964.88
283.15 K, 16950 kPa | 964.99
283.15 K, 16975 kPa | 965.14
283.15 K, 17000 kPa | 965.28
283.15 K, 17025 kPa | 965.37
283.15 K, 17050 kPa | 965.46
283.15 K, 17075 kPa | 965.62
283.15 K, 17100 kPa | 965.75
283.15 K, 17125 kPa | 965.87
283.15 K, 17150 kPa | 965.97
283.15 K, 17175 kPa | 966.11
283.15 K, 17200 kPa | 966.25
283.15 K, 17225 kPa | 966.36
283.15 K, 17250 kPa | 966.51
283.15 K, 17275 kPa | 966.6
283.15 K, 17300 kPa | 966.7
283.15 K, 17325 kPa | 966.85
283.15 K, 17350 kPa | 966.97
283.15 K, 17375 kPa | 967.09
283.15 K, 17400 kPa | 967.17
283.15 K, 17425 kPa | 967.31
283.15 K, 17450 kPa | 967.41
283.15 K, 17475 kPa | 967.57
283.15 K, 17500 kPa | 967.66
283.15 K, 17525 kPa | 967.82
283.15 K, 17550 kPa | 967.9
283.15 K, 17575 kPa | 968.06
283.15 K, 17600 kPa | 968.15
283.15 K, 17625 kPa | 968.24
283.15 K, 17650 kPa | 968.4
283.15 K, 17675 kPa | 968.48
283.15 K, 17700 kPa | 968.64
283.15 K, 17725 kPa | 968.78
283.15 K, 17750 kPa | 968.88
283.15 K, 17775 kPa | 968.98
283.15 K, 17800 kPa | 969.12
283.15 K, 17825 kPa | 969.25
283.15 K, 17850 kPa | 969.37
283.15 K, 17875 kPa | 969.46
283.15 K, 17900 kPa | 969.6
283.15 K, 17925 kPa | 969.69
283.15 K, 17950 kPa | 969.8
283.15 K, 17975 kPa | 969.94
283.15 K, 18000 kPa | 970.08
283.15 K, 18025 kPa | 970.18
283.15 K, 18050 kPa | 970.31
283.15 K, 18075 kPa | 970.43
283.15 K, 18100 kPa | 970.52
283.15 K, 18125 kPa | 970.66
283.15 K, 18150 kPa | 970.8
283.15 K, 18175 kPa | 970.91
283.15 K, 18200 kPa | 970.99
283.15 K, 18225 kPa | 971.16
283.15 K, 18250 kPa | 971.25
283.15 K, 18275 kPa | 971.39
283.15 K, 18300 kPa | 971.48
283.15 K, 18325 kPa | 971.57
283.15 K, 18350 kPa | 971.73
283.15 K, 18375 kPa | 971.85
283.15 K, 18400 kPa | 971.98
283.15 K, 18425 kPa | 972.05
283.15 K, 18450 kPa | 972.17
283.15 K, 18475 kPa | 972.3
283.15 K, 18500 kPa | 972.43
283.15 K, 18525 kPa | 972.54
283.15 K, 18550 kPa | 972.62
283.15 K, 18575 kPa | 972.76
283.15 K, 18600 kPa | 972.9
283.15 K, 18625 kPa | 973.03
283.15 K, 18650 kPa | 973.11
283.15 K, 18675 kPa | 973.21
283.15 K, 18700 kPa | 973.35
283.15 K, 18725 kPa | 973.46
283.15 K, 18750 kPa | 973.6
283.15 K, 18775 kPa | 973.72
283.15 K, 18800 kPa | 973.84
283.15 K, 18825 kPa | 973.96
283.15 K, 18850 kPa | 974.07
283.15 K, 18875 kPa | 974.17
283.15 K, 18900 kPa | 974.28
283.15 K, 18925 kPa | 974.41
283.15 K, 18950 kPa | 974.55
283.15 K, 18975 kPa | 974.63
283.15 K, 19000 kPa | 974.74
283.15 K, 19025 kPa | 974.9
283.15 K, 19050 kPa | 974.98
283.15 K, 19075 kPa | 975.08
283.15 K, 19100 kPa | 975.18
283.15 K, 19125 kPa | 975.31
283.15 K, 19150 kPa | 975.44
283.15 K, 19175 kPa | 975.52
283.15 K, 19200 kPa | 975.66
283.15 K, 19225 kPa | 975.76
283.15 K, 19250 kPa | 975.85
283.15 K, 19275 kPa | 976.02
283.15 K, 19300 kPa | 976.1
283.15 K, 19325 kPa | 976.18
283.15 K, 19350 kPa | 976.34
283.15 K, 19375 kPa | 976.42
283.15 K, 19400 kPa | 976.53
283.15 K, 19425 kPa | 976.66
283.15 K, 19450 kPa | 976.74
283.15 K, 19475 kPa | 976.85
283.15 K, 19500 kPa | 976.99
283.15 K, 19525 kPa | 977.1
283.15 K, 19550 kPa | 977.22
283.15 K, 19575 kPa | 977.29
283.15 K, 19600 kPa | 977.43
283.15 K, 19625 kPa | 977.51
283.15 K, 19650 kPa | 977.66
283.15 K, 19675 kPa | 977.74
283.15 K, 19700 kPa | 977.89
283.15 K, 19725 kPa | 977.97
283.15 K, 19750 kPa | 978.07
283.15 K, 19775 kPa | 978.19
283.15 K, 19800 kPa | 978.31
283.15 K, 19825 kPa | 978.42
283.15 K, 19850 kPa | 978.49
283.15 K, 19875 kPa | 978.64
283.15 K, 19900 kPa | 978.72
283.15 K, 19925 kPa | 978.84
283.15 K, 19950 kPa | 978.96
283.15 K, 19975 kPa | 979.04
283.15 K, 20000 kPa | 979.19
293.15 K, 6500 kPa | 813.14
293.15 K, 6525 kPa | 813.39
293.15 K, 6550 kPa | 813.83
293.15 K, 6575 kPa | 814.36
293.15 K, 6600 kPa | 814.85
293.15 K, 6625 kPa | 815.37
293.15 K, 6650 kPa | 815.85
293.15 K, 6675 kPa | 816.32
293.15 K, 6700 kPa | 816.75
293.15 K, 6725 kPa | 817.24
293.15 K, 6750 kPa | 817.7
293.15 K, 6775 kPa | 818.19
293.15 K, 6800 kPa | 818.69
293.15 K, 6825 kPa | 819.09
293.15 K, 6850 kPa | 819.56
293.15 K, 6875 kPa | 820.02
293.15 K, 6900 kPa | 820.51
293.15 K, 6925 kPa | 821
293.15 K, 6950 kPa | 821.45
293.15 K, 6975 kPa | 821.88
293.15 K, 7000 kPa | 822.38
293.15 K, 7025 kPa | 822.78
293.15 K, 7050 kPa | 823.25
293.15 K, 7075 kPa | 823.68
293.15 K, 7100 kPa | 824.12
293.15 K, 7125 kPa | 824.56
293.15 K, 7150 kPa | 824.97
293.15 K, 7175 kPa | 825.4
293.15 K, 7200 kPa | 825.75
293.15 K, 7225 kPa | 826.24
293.15 K, 7250 kPa | 826.63
293.15 K, 7275 kPa | 827.05
293.15 K, 7300 kPa | 827.52
293.15 K, 7325 kPa | 827.94
293.15 K, 7350 kPa | 828.35
293.15 K, 7375 kPa | 828.75
293.15 K, 7400 kPa | 829.18
293.15 K, 7425 kPa | 829.57
293.15 K, 7450 kPa | 829.96
293.15 K, 7475 kPa | 830.36
293.15 K, 7500 kPa | 830.75
293.15 K, 7525 kPa | 831.18
293.15 K, 7550 kPa | 831.58
293.15 K, 7575 kPa | 832.01
293.15 K, 7600 kPa | 832.39
293.15 K, 7625 kPa | 832.79
293.15 K, 7650 kPa | 833.16
293.15 K, 7675 kPa | 833.55
293.15 K, 7700 kPa | 833.94
293.15 K, 7725 kPa | 834.35
293.15 K, 7750 kPa | 834.76
293.15 K, 7775 kPa | 835.15
293.15 K, 7800 kPa | 835.53
293.15 K, 7825 kPa | 835.97
293.15 K, 7850 kPa | 836.36
293.15 K, 7875 kPa | 836.75
293.15 K, 7900 kPa | 837.14
293.15 K, 7925 kPa | 837.51
293.15 K, 7950 kPa | 837.87
293.15 K, 7975 kPa | 838.26
293.15 K, 8000 kPa | 838.63
293.15 K, 8025 kPa | 838.99
293.15 K, 8050 kPa | 839.37
293.15 K, 8075 kPa | 839.71
293.15 K, 8100 kPa | 840.15
293.15 K, 8125 kPa | 840.47
293.15 K, 8150 kPa | 840.87
293.15 K, 8175 kPa | 841.23
293.15 K, 8200 kPa | 841.62
293.15 K, 8225 kPa | 841.97
293.15 K, 8250 kPa | 842.39
293.15 K, 8275 kPa | 842.74
293.15 K, 8300 kPa | 843.12
293.15 K, 8325 kPa | 843.46
293.15 K, 8350 kPa | 843.86
293.15 K, 8375 kPa | 844.16
293.15 K, 8400 kPa | 844.56
293.15 K, 8425 kPa | 844.93
293.15 K, 8450 kPa | 845.3
293.15 K, 8475 kPa | 845.64
293.15 K, 8500 kPa | 845.98
293.15 K, 8525 kPa | 846.37
293.15 K, 8550 kPa | 846.75
293.15 K, 8575 kPa | 847.1

Conditions | speed of sound [m/s]
20010 kPa | 624.7
24930 kPa | 674.5
29990 kPa | 718.7
34940 kPa | 755.3
39990 kPa | 791.4
44940 kPa | 822.9
49970 kPa | 852.5
54900 kPa | 879.8
59940 kPa | 906
64950 kPa | 930.5
69950 kPa | 953.8
74980 kPa | 976
80020 kPa | 997.6
90010 kPa | 1037.3
100010 kPa | 1074.3
109950 kPa | 1108.7
120040 kPa | 1141.7
140050 kPa | 1201.9
160040 kPa | 1256.5
178780 kPa | 1303.9
